US6559182B1 (Purcell Jojoba International, LLC, priority 2001, dated 2003)

Tested on: Herpes simplex (HSV1 facial herpes or HSV2 genital herpes)
Experiment: Survey of Herpes simplex patients who treated themselves with jojoba oil esters
Format: in vivo, human
Conditions: jojoba oil esters compared with the previously used medication
From the text: The study included male and female subjects with a history of multiple Herpes simplex infections that were either HSV1 facial herpes or HSV2 genital herpes. There was non intentional discrimination as to age, sex, and educational or ethnic background.
In this study 57 subjects compared jojoba oil ester treatment with previously used remedies, including no treatment at all. Each subject was given directions as to how to apply the jojoba oil esters. Subjects were advised to begin treatment at the very earliest warning symptoms of burning, itching or tingling that precede a new cold sore outbreak. They were directed to apply one drop of the solution to the herpes area with their finger, then reapply it again in 15 minutes and at mealtimes and bedtime for three days.
The study utilized a survey sheet that included the average number of outbreaks per year in the past, time and date of this new outbreak and how many hours after the first symptoms before treatment was started. Subjects reported the number of doses applied, and the number of days from the onset until they were free of symptoms. They also rated the effectiveness of this treatment compared to previous remedies they had used.

## Nc1nc2c(ncn2COCCO)c(=O)[nH]1 [Acyclovir/Zovirax, Acyclovir]
  % reporting jojoba Ester more Effective: 84%
  JOE a little More effective (number of patients who had used this Rx): 2
  JOE a little less effective (number of patients who had used this Rx): 1
  JOE avg effective (number of patients who had used this Rx): 2
  JOE much more effective (number of patients who had used this Rx): 14

## CC(=O)Oc1ccccc1C(=O)O [Aspirin]
  % reporting jojoba Ester more Effective: 100%
  JOE much more effective (number of patients who had used this Rx): 1

## C[S+](C)[O-] [DMSO]
  % reporting jojoba Ester more Effective: 100%
  JOE a little More effective (number of patients who had used this Rx): 1

## CC(=O)OCC(CCn1cnc2cnc(N)nc21)COC(C)=O [Famavir]
  % reporting jojoba Ester more Effective: 100%
  JOE much more effective (number of patients who had used this Rx): 1

## OO [Hydrogen peroxide]
  % reporting jojoba Ester more Effective: 100%
  JOE a little More effective (number of patients who had used this Rx): 1
  JOE much more effective (number of patients who had used this Rx): 1

## NCCCC[C@H](N)C(=O)O [Lycine]
  % reporting jojoba Ester more Effective: 67%
  JOE avg effective (number of patients who had used this Rx): 2
  JOE much more effective (number of patients who had used this Rx): 4

## CC(C)[C@H](N)C(=O)OCCOCn1cnc2c(=O)[nH]c(N)nc21 [Valtrex]
  % reporting jojoba Ester more Effective: 100%
  JOE a little More effective (number of patients who had used this Rx): 1
  JOE much more effective (number of patients who had used this Rx): 1

## CC[C@H]1OC(=O)[C@H](C)[C@@H](O[C@H]2C[C@@](C)(OC)[C@@H](O)[C@H](C)O2)[C@H](C)[C@@H](O[C@@H]2O[C@H](C)C[C@H](N(C)C)[C@H]2O)[C@](C)(O)C[C@@H](C)CN(C)[C@H](C)[C@@H](O)[C@]1(C)O [Zithromax]
  % reporting jojoba Ester more Effective: 100%
  JOE much more effective (number of patients who had used this Rx): 1
